Laboratory results reported in patent publication US20010003751A1, “Pharmaceutical composition for treating transient ischemic attack” (priority 1995, published 2001).

Test system: transient ischemic attack (TIA) associated with the internal carotid arterial system
Test: phase III clinical study of TIA (efficacy in suppressing TIA recurrence, overall safety, utility ratings)
Type: in vivo, human (TIA patients)
Conditions: TIA patients; for Efficacy (%): Effective / Efficacy (%): Indeterminable / Efficacy (%): Ineffective / Efficacy (%): Slightly Effective / Efficacy (%): Worsened: ITT
Method: Subjects and total number: The subjects of this study were patients who developed one or more TIA attacks associated with the internal carotid arterial system (NIH Diagnostic Criteria, 1990) during the 3-month period before initial administration (171 for efficacy and utility, 175 for safety). Tablets each containing 50 mg or 100 mg of the subject compound obtained in Example 1 were orally administered after breakfast once daily for 18 months. The study was conducted in double blind fashion. As regards conversion to cerebral infarction, temporal changes in TIA onset frequency, TIA symptoms and duration, etc., efficacy was rated at 6 months, 1 year and 18 months of administration, using a 5-grade rating system: The attack frequency at time of rating (during therapeutic period) 1 year and 18 months after initial administration served as an efficacy rating index. For rating at 6 months of administration and rating at less than 1 year due to discontinuation (adverse reactions etc.), rating was in regard to duration of administration period, with reference to the following rating criteria. [table] Overall safety was rated on the basis of adverse reactions, complications, and presence or absence of abnormal changes in clinical laboratory parameters and their degrees, using a 5-grade rating system: On the basis of efficacy and overall safety ratings for suppression of TIA recurrence, utility was rated using a 5-grade rating system: With regard to the above rating items, data were analyzed using ITT (intent-to-treat analysis), with the utility rating in overall assessment at final administration (18 months after administration) as the major item.

[1] = 50 mg/day oral once daily for 18 months, 86 patients
[2] = 50 mg/day oral once daily for 18 months, 85 patients
[3] = 100 mg/day oral once daily for 18 months, 89 patients
[4] = 100 mg/day oral once daily for 18 months, 86 patients

O=C(O)CCCC/C=C(\c1ccccc1)c1cccnc1 [Test compound, (E)-7-(3-pyridyl)-7-phenyl-6-heptenic acid]
Overall Safety (%): Considerably Problematic [1]: 1.2% | Overall Safety (%): Indeterminable [1]: 4.7% | Overall Safety (%): No Problem [1]: 86.0% | Overall Safety (%): Slightly Problematic [1]: 8.1% | Overall Safety (%): Very Problematic [1]: 0% | Efficacy (%): Effective [2]: 64.7% | Efficacy (%): Indeterminable [2]: 10.6% | Efficacy (%): Ineffective [2]: 16.5% | Efficacy (%): Slightly Effective [2]: 2.3% | Efficacy (%): Worsened [2]: 5.9% | Overall Safety (%): Considerably Problematic [3]: 1.1% | Overall Safety (%): Indeterminable [3]: 3.4% | Overall Safety (%): No Problem [3]: 79.8% | Overall Safety (%): Slightly Problematic [3]: 13.5% | Overall Safety (%): Very Problematic [3]: 2.2% | Efficacy (%): Effective [4]: 66.3% | Efficacy (%): Indeterminable [4]: 11.6% | Efficacy (%): Ineffective [4]: 8.1% | Efficacy (%): Slightly Effective [4]: 7.0% | Efficacy (%): Worsened [4]: 7.0%
